According to the NIST ThermoML archive (doi:10.1016/j.fluid.2016.08.002):
± gives the expanded uncertainty stated by the source.

Experiment: xn = mol fraction of the nth substance listed
Conditions: Gas, Vibrating tube method

## S [hydrogen sulfide] + C
273.05 K, 6535 kPa, x2 = 0.8197
  mass density: 73.36 ± 1 kg/m3
273.05 K, 19490 kPa, x2 = 0.8197
  mass density: 268.43 ± 2.2 kg/m3
273.05 K, 20545 kPa, x2 = 0.8197
  mass density: 276.64 ± 1.8 kg/m3
273.05 K, 27474 kPa, x2 = 0.714
  mass density: 379.67 ± 1.5 kg/m3
273.05 K, 29015 kPa, x2 = 0.714
  mass density: 385.58 ± 1.5 kg/m3
273.06 K, 1024 kPa, x2 = 0.8197
  mass density: 8.86 ± 0.5 kg/m3
273.06 K, 1546 kPa, x2 = 0.8197
  mass density: 13.54 ± 0.58 kg/m3
273.06 K, 1998 kPa, x2 = 0.8197
  mass density: 17.83 ± 0.65 kg/m3
273.06 K, 3515 kPa, x2 = 0.714
  mass density: 41.26 ± 0.84 kg/m3
273.06 K, 4568 kPa, x2 = 0.8197
  mass density: 45.89 ± 0.92 kg/m3
273.06 K, 7007 kPa, x2 = 0.8197
  mass density: 80.78 ± 1.1 kg/m3
273.06 K, 7503 kPa, x2 = 0.8197
  mass density: 88.86 ± 1.1 kg/m3
273.06 K, 19898 kPa, x2 = 0.8197
  mass density: 271.74 ± 2 kg/m3
273.06 K, 27956 kPa, x2 = 0.714
  mass density: 381.54 ± 1.5 kg/m3
273.07 K, 2472 kPa, x2 = 0.8197
  mass density: 22.64 ± 0.71 kg/m3
273.07 K, 2991 kPa, x2 = 0.714
  mass density: 34.29 ± 0.78 kg/m3
273.07 K, 4037 kPa, x2 = 0.8197
  mass density: 39.48 ± 0.87 kg/m3
273.07 K, 19004 kPa, x2 = 0.8197
  mass density: 264.22 ± 2.5 kg/m3
273.07 K, 21088 kPa, x2 = 0.8197
  mass density: 280.47 ± 1.6 kg/m3
273.07 K, 22026 kPa, x2 = 0.8197
  mass density: 286.58 ± 1.4 kg/m3
273.08 K, 3006 kPa, x2 = 0.8197
  mass density: 28.12 ± 0.77 kg/m3
273.08 K, 3496 kPa, x2 = 0.8197
  mass density: 33.34 ± 0.83 kg/m3
273.08 K, 8037 kPa, x2 = 0.8197
  mass density: 97.86 ± 1.2 kg/m3
273.08 K, 17450 kPa, x2 = 0.714
  mass density: 319.61 ± 2.6 kg/m3
273.08 K, 17522 kPa, x2 = 0.8197
  mass density: 249.57 ± 2.4 kg/m3
273.08 K, 18504 kPa, x2 = 0.8197
  mass density: 259.61 ± 2.5 kg/m3
273.08 K, 21490 kPa, x2 = 0.8197
  mass density: 283.16 ± 1.5 kg/m3
273.09 K, 8509 kPa, x2 = 0.8197
  mass density: 106.04 ± 1.2 kg/m3
273.09 K, 8697 kPa, x2 = 0.8197
  mass density: 109.34 ± 1.2 kg/m3
273.09 K, 18521 kPa, x2 = 0.714
  mass density: 328.7 ± 2.7 kg/m3
273.1 K, 18017 kPa, x2 = 0.8197
  mass density: 254.8 ± 2.4 kg/m3
273.1 K, 18931 kPa, x2 = 0.714
  mass density: 331.97 ± 2.8 kg/m3
273.1 K, 22561 kPa, x2 = 0.8197
  mass density: 289.86 ± 1.3 kg/m3
273.1 K, 28471 kPa, x2 = 0.714
  mass density: 383.53 ± 1.5 kg/m3
273.11 K, 9417 kPa, x2 = 0.8197
  mass density: 122.17 ± 1.4 kg/m3
273.11 K, 10159 kPa, x2 = 0.8197
  mass density: 135.6 ± 1.4 kg/m3
273.11 K, 14299 kPa, x2 = 0.8197
  mass density: 207.01 ± 2 kg/m3
273.11 K, 17004 kPa, x2 = 0.8197
  mass density: 243.74 ± 2.3 kg/m3
273.11 K, 17956 kPa, x2 = 0.714
  mass density: 324.07 ± 2.6 kg/m3
273.11 K, 23102 kPa, x2 = 0.8197
  mass density: 293.06 ± 1.3 kg/m3
273.12 K, 23507 kPa, x2 = 0.8197
  mass density: 295.4 ± 1.3 kg/m3
273.13 K, 10896 kPa, x2 = 0.8197
  mass density: 148.97 ± 1.6 kg/m3
273.13 K, 11490 kPa, x2 = 0.8197
  mass density: 159.68 ± 1.7 kg/m3
273.13 K, 12024 kPa, x2 = 0.8197
  mass density: 169.16 ± 1.7 kg/m3
273.13 K, 13513 kPa, x2 = 0.8197
  mass density: 194.52 ± 1.9 kg/m3
273.13 K, 14007 kPa, x2 = 0.8197
  mass density: 202.45 ± 2 kg/m3
273.13 K, 14904 kPa, x2 = 0.8197
  mass density: 216.11 ± 2.1 kg/m3
273.13 K, 15510 kPa, x2 = 0.8197
  mass density: 224.73 ± 2.1 kg/m3
273.13 K, 16041 kPa, x2 = 0.8197
  mass density: 231.85 ± 2.2 kg/m3
273.13 K, 16504 kPa, x2 = 0.8197
  mass density: 237.74 ± 2.2 kg/m3
273.13 K, 24081 kPa, x2 = 0.8197
  mass density: 298.69 ± 1.3 kg/m3
273.13 K, 27492 kPa, x2 = 0.8197
  mass density: 316.71 ± 1.2 kg/m3
273.13 K, 28026 kPa, x2 = 0.8197
  mass density: 319.37 ± 1.2 kg/m3
273.13 K, 28568 kPa, x2 = 0.8197
  mass density: 321.92 ± 1.1 kg/m3
273.13 K, 29088 kPa, x2 = 0.8197
  mass density: 324.13 ± 1.1 kg/m3
273.13 K, 29546 kPa, x2 = 0.8197
  mass density: 325.75 ± 1.1 kg/m3
273.13 K, 29999 kPa, x2 = 0.8197
  mass density: 327.01 ± 1.1 kg/m3
273.14 K, 10580 kPa, x2 = 0.8197
  mass density: 143.25 ± 1.5 kg/m3
273.14 K, 21825 kPa, x2 = 0.714
  mass density: 351.99 ± 1.7 kg/m3
273.14 K, 24511 kPa, x2 = 0.8197
  mass density: 301.13 ± 1.2 kg/m3
273.14 K, 26076 kPa, x2 = 0.8197
  mass density: 309.49 ± 1.2 kg/m3
273.14 K, 26577 kPa, x2 = 0.8197
  mass density: 312.08 ± 1.2 kg/m3
273.14 K, 26982 kPa, x2 = 0.8197
  mass density: 314.11 ± 1.2 kg/m3
273.15 K, 25182 kPa, x2 = 0.8197
  mass density: 304.96 ± 1.2 kg/m3
273.15 K, 25661 kPa, x2 = 0.8197
  mass density: 307.41 ± 1.2 kg/m3
273.16 K, 13305 kPa, x2 = 0.8197
  mass density: 191.11 ± 1.9 kg/m3
